This assay concerns the target canine TRPM8 (Canis lupus familiaris, UniProt Q1A7N1). The assay is described as follows: In Vitro Canine TRPM8 Functional Assay (Ca2+ fluorescence, icilin activation). It counts as cell-based. The note with it: for IC50: read-out: IC50; for inhibition at 0.2 µM: read-out: % Inh @ 0.2; for inhibition at 0.5 µM: compound at 0.5 μM, read-out: % Inh @ 0.5. The gist of the method: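 HEK293 cells stably expressing canine TRPM8 were loaded with Calcium 3 dye (35 min at 37 °C, then 25 min at room temperature). Compound was added and Ca2+ fluorescence was read for 5 min before icilin at a concentration giving about 80% maximal response. EC50/IC50 came from eight-point dose-response curves, quadruplicate wells.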

Where [1] appears, read: HEK293 cells stably expressing canine TRPM8, icilin activation, eight-point dose-response.
[2] abbreviates: compound at 0.2 μM, canine TRPM8, icilin activation.
[3] abbreviates: canine TRPM8, icilin activation.

Read-outs that look alike come from different tables or passages of the source.

canine TRPM8, sequence (Q1A7N1 1-1104): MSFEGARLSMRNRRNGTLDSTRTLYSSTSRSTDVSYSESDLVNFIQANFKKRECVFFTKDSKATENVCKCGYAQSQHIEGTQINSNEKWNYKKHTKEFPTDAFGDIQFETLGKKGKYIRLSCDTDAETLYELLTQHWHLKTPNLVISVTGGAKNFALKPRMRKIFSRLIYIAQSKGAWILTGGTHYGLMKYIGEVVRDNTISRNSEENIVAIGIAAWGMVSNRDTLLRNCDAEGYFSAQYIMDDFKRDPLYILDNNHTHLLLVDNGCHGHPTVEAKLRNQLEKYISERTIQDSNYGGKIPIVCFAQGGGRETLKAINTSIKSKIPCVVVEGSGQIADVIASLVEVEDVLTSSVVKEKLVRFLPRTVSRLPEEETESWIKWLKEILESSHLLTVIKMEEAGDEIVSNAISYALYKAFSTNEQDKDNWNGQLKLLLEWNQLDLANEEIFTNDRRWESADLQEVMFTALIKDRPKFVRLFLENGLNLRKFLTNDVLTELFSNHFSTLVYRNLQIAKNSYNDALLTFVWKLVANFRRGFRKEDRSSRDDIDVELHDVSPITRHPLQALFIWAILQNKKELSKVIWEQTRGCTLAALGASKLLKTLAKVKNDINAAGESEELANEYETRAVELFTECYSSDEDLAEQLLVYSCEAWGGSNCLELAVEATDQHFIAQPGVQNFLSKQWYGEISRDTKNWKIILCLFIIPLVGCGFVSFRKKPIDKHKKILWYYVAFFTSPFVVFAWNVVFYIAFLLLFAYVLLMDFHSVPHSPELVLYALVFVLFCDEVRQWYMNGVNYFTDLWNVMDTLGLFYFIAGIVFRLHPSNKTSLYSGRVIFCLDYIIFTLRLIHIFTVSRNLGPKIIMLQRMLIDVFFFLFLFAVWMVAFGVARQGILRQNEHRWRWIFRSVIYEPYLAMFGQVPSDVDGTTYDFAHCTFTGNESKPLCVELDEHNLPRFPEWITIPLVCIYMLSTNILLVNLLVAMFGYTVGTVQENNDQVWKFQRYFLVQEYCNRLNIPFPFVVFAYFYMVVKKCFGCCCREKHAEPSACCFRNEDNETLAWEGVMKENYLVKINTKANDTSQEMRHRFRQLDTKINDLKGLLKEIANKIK

With `CN(C)C(=O)c1c(N(Cc2ccc(F)c(C(F)(F)F)c2)S(=O)(=O)c2ccccc2)sc2ccccc12` [Compound 457, N-(3-Dimethyl-carbamoyl-benzo[b]thiophen-2-yl)-N-(4-fluoro-3-trifluoromethyl-benzyl)-benzenesulfonamide], under setting [1], the IC50 came to 47 nM. The “% Inh @ 0.2 (μM)” value under setting [2] worked out at 93%. In the case of `CN(C)CCN(c1sc2ccccc2c1Br)S(=O)(=O)c1ccc(C(=O)O)cc1` [Compound 441, N-(3-Bromo-benzo[b]thiophen-2-yl)-N-(2-(dimethylamino)ethyl)-4-carboxy-benzenesulfonamide], the inhibition at 0.2 µM under setting [2] stood at 37%. Turning to `CCS(=O)(=O)N(CC(F)F)c1sc2ccccc2c1C` [Compound 111, N-(2,2-Difluoro-ethyl)-N-(3-methyl-benzo[b]thiophen-2-yl)-ethanesulfonamide], under setting [1], the half-inhibitory concentration (IC50) was 92 nM. For the same molecule, the inhibition at 0.2 µM under setting [2] was found to be 68%. On to `CC1=C(N(Cc2ccc(F)c(C(F)(F)F)c2)S(=O)(=O)c2ccc(C(=O)O)cc2)S(=O)(=O)c2ccccc21` [Compound 634, N-(4-Fluoro-3-trifluoromethyl-benzyl)-N-(3-methyl-1,1-dioxo-benzo[b]thiophen-2-yl)-4-carboxy-benzenesulfonamide], for which the inhibition at 0.2 µM under setting [2] was 55%. `O=[N+]([O-])c1ccc(S(=O)(=O)N(CCC(F)(F)F)c2cc3ccccc3s2)cc1` [Compound 498, N-(Benzo[b]thiophen-2-yl)-4-nitro-N-(3,3,3-trifluoro-propyl)-benzenesulfonamide]: the inhibition at 0.2 µM under setting [2] turned out to be 41%. As to `O=S(=O)(c1ccc(-c2nnn[nH]2)cc1)N(Cc1ccc(F)c(C(F)(F)F)c1)c1cc2ccccc2s1` [Compound 424, N-(Benzo[b]thiophen-2-yl)-N-(4-fluoro-3-trifluoromethyl-benzyl)-4-(1H-tetrazol-5-yl)-benzenesulfonamide], under setting [1], the IC50 amounted to 7 nM. In addition, the inhibition at 0.2 µM under setting [2] worked out at 95%.

Turning to `CCS(=O)(=O)N(Cc1ccc(F)c(F)c1)c1sc2ccccc2c1Br` [Compound 152, N-(3-Bromo-benzo[b]thiophen-2-yl)-N-(3,4-difluoro-benzyl)-ethanesulfonamide], the IC50 under setting [1] was found to be 2.6 nM. The inhibition at 0.5 µM under setting [3] turned out to be 95%. As to `COC(=O)c1ccc(S(=O)(=O)N(CCC(F)(F)F)c2sc3ccccc3c2C)cc1` [Compound 629, N-(3-Methyl-benzo[b]thiophen-2-yl)-N-(3,3,3-trifluoro-propyl)-4-carbomethoxy-benzenesulfonamide], the 50% inhibitory concentration (IC50) under setting [1] was determined as 26.2 nM. In addition, the inhibition at 0.2 µM under setting [2] came to 103%.

For the molecule `O=C(O)c1ccc(S(=O)(=O)N(CCN2CCOCC2)c2sc3ccccc3c2Br)cc1` [Compound 277, N-(3-Bromo-benzo[b]thiophen-2-yl)-N-(2-morpholin-4-yl-ethyl)-4-carboxy-benzenesulfonamide], the IC50 under setting [1] was 39 nM. Moreover, under setting [2], the inhibition at 0.2 µM is 91%. With `O=C(O)c1ccc(S(=O)(=O)N(Cc2ccc(F)c(C(F)(F)F)c2)c2sc3ccccc3c2C2CC2)cc1` [Compound 675, N-(3-Cyclopropyl-benzo[b]thiophen-2-yl)-N-(4-fluoro-3-trifluoromethyl-benzyl)-4-carboxy-benzenesulfonamide], under setting [1], the concentration for half-maximal inhibition (IC50) was 2.4 nM. Under setting [2], the inhibition at 0.2 µM came out at 100%. For `O=c1[nH]c(-c2ccc(S(=O)(=O)N(CCCCC(F)(F)F)c3sc4ccccc4c3Cl)cc2)no1` [Compound 584, N-(3-Chloro-benzo[b]thiophen-2-yl)-N-(5,5,5-trifluoro-pentyl)-4-(5-oxo-4,5-dihydro-[1,2,4]oxadiazol-3-yl)-benzenesulfonamide], in that order: 15.9 nM and 100%.

Turning to “N-(3-Cyclopentyl-benzo[b]thiophen-2-yl)-N-(4-fluoro-3-trifluoromethyl-benzyl)-4-carbomethoxy-benzenesulfonamide [Compound 501]”, the “% Inh @ 0.2 (μM)” value under setting [2] was found to be 31%. For the molecule `CC(O)c1c(N(Cc2ccc(F)c(C(F)(F)F)c2)S(=O)(=O)c2ccccc2)sc2ccccc12` (centres unmarked) [Compound 223, N-(4-Fluoro-3-trifluoromethyl-benzyl)-N-[3-(1-hydroxy-ethyl)-benzo[b]thiophen-2-yl]-benzenesulfonamide], the IC50 under setting [1] amounted to 2.3 nM. Under setting [2], the inhibition at 0.2 µM was found to be 96%. For `COC(=O)CCS(=O)(=O)N(CCC(F)(F)F)c1sc2ccccc2c1C` [Compound 601, N-(3-Methyl-benzo[b]thiophen-2-yl)-N-(3,3,3-trifluoro-propyl)-2-carbomethoxy-ethanesulfonamide], under setting [2], the inhibition at 0.2 µM worked out at 100%. In the case of `COc1cccc(S(=O)(=O)N(Cc2ccc(F)c(C(F)(F)F)c2)c2sc3ccccc3c2Cl)c1` [Compound 180, N-(3-Chloro-benzo[b]thiophen-2-yl)-N-(4-fluoro-3-trifluoromethyl-benzyl)-3-methoxy-benzenesulfonamide], the IC50 under setting [1] is 43 nM. The inhibition at 0.2 µM under setting [2] was 96%. For the molecule `COC(=O)c1ccc(S(=O)(=O)N(Cc2ccc(F)c(C(F)(F)F)c2)c2sc3ccccc3c2C=O)cc1` [Compound 211, N-(3-Formyl-benzo[b]thiophen-2-yl)-N-(4-fluoro-3-trifluoromethyl-benzyl)-4-carbomethoxy-benzenesulfonamide], the concentration for half-maximal inhibition (IC50) under setting [1] came to 30 nM. Also, under setting [2], the inhibition at 0.2 µM was found to be 80%. `COc1ccc(CN(c2cc3ccccc3s2)S(=O)(=O)c2ccccc2)cc1` [Compound 49, N-(Benzo[b]thiophen-2-yl)-N-(4-methoxy-benzyl)-benzenesulfonamide]: under setting [1], the half-inhibitory concentration (IC50) came to 170 nM. Besides, the inhibition at 0.5 µM under setting [3] came to 90%.

Consider `CS(=O)(=O)Nc1ccc(S(=O)(=O)N(CCCCC(F)(F)F)c2cc3ccccc3s2)cc1` [Compound 678, N-(Benzo[b]thiophen-2-yl)-4-methanesulfonylamino-N-(5,5,5-trifluoro-pentyl)-benzenesulfonamide], for which the inhibition at 0.2 µM under setting [2] was determined as 61%.

Turning to `CCCCN(c1cc2ccccc2s1)S(=O)(=O)c1ccccc1` [Compound 117, N-(Benzo[b]thiophen-2-yl)-N-(butyl)-benzenesulfonamide], the inhibition at 0.5 µM under setting [3] was 99%.

Turning to `COc1ccc(Br)c(CN(c2sc3ccccc3c2Br)S(=O)(=O)c2ccccc2)c1` [Compound 163, N-(3-Bromo-benzo[b]thiophen-2-yl)-N-(2-bromo-5-methoxy-benzyl)-benzenesulfonamide], the IC50 under setting [1] came to 63.9 nM. The inhibition at 0.5 µM under setting [3] came to 92%. For the molecule `CS(=O)(=O)Nc1c(Cl)cc(S(=O)(=O)N(CCC(F)(F)F)c2sc3ccccc3c2Cl)cc1Cl` [Compound 681, 3,5-Dichloro-N-(3-chloro-benzo[b]thiophen-2-yl)-4-methanesulfonylamino-N-(3,3,3-trifluoro-propyl)-benzenesulfonamide], under setting [1], the IC50 was 67.4 nM. Besides, under setting [2], the inhibition at 0.2 µM is 93.3%. On to `CCS(=O)(=O)N(Cc1ccc(F)c(OC)c1)c1sc2ccccc2c1C(C)O` (centres unmarked) [Compound 827, N-(4-Fluoro-3-methoxybenzyl)-N-[3-(1-hydroxyethyl)-benzo[b]thiophen-2-yl]-ethanesulfonamide], for which the inhibition at 0.2 µM (0.2 μM compound, HEK293 cells stably expressing canine TRPM8, icilin activation) was determined as 101%. The IC50 (HEK293 cells stably expressing canine TRPM8, icilin activation, average of two or more determinations) came out at 6.6 nM. `O=c1[nH]c(-c2ccc(S(=O)(=O)N(CCC3CC3)c3sc4ccccc4c3Br)cc2)ns1` [Compound 706, N-(3-Bromo-benzo[b]thiophen-2-yl)-N-(cyclopropyl-ethyl)-4-(5-oxo-4,5-dihydro-[1,2,4]thiadiazol-3-yl)-benzenesulfonamide]: under setting [1], the half-maximal inhibitory concentration (IC50) was determined as 14 nM. For the same molecule, under setting [2], the inhibition at 0.2 µM is 102%. In the case of `CC1=C(N(CCC(F)(F)F)S(=O)(=O)c2ccccc2)S(=O)(=O)c2ccccc21` [Compound 619, N-(3-Methyl-1,1-dioxo-benzo[b]thiophen-2-yl)-N-(3,3,3-trifluoro-propyl)-benzenesulfonamide], the IC50 under setting [1] came out at 39.8 nM. In addition, the inhibition at 0.2 µM under setting [2] amounted to 101%. As for `Cc1c(N(Cc2ccc(C(F)(F)F)cc2)S(=O)(=O)c2ccc(C(=O)O)cc2)sc2ccccc12` [Compound 518, N-(3-Methyl-benzo[b]thiophen-2-yl)-N-(4-trifluoromethyl-benzyl)-4-carboxy-benzenesulfonamide], the 50% inhibitory concentration (IC50) under setting [1] was found to be 0.7 nM. Moreover, the inhibition at 0.2 µM under setting [2] stood at 101%. With `CCCCN(c1sc2ccccc2c1Br)S(=O)(=O)c1ccc(C(N)=NO)cc1` [Compound 473, N-(3-Bromo-benzo[b]thiophen-2-yl)-N-(butyl)-4-N-hydroxy-benzamidinesulfonamide], under setting [1], the IC50 was determined as 9 nM. Under setting [2], the “% Inh @ 0.2 (μM)” value was determined as 102%. For `CCCCN(c1sc2ccccc2c1Cl)S(=O)(=O)c1ccc(C(=O)O)cc1` [Compound 477, N-(3-Chloro-benzo[b]thiophen-2-yl)-N-(butyl)-4-carboxy-benzenesulfonamide], under setting [1], the 50% inhibitory concentration (IC50) turned out to be 12 nM. In addition, the inhibition at 0.2 µM under setting [2] came to 100%. For the molecule `O=c1[nH]c(-c2ccc(S(=O)(=O)N(CCC3CC3)c3sc4ccccc4c3Br)cc2)no1` [Compound 626, N-(3-Bromo-benzo[b]thiophen-2-yl)-N-(cyclopropyl-ethyl)-4-(5-oxo-4,5-dihydro-[1,2,4]oxadiazol-3-yl)-benzenesulfonamide], the IC50 under setting [1] amounted to 7.4 nM. For the same molecule, the inhibition at 0.2 µM under setting [2] stood at 103%. For `CS(=O)(=O)CS(=O)(=O)N(Cc1ccc(F)c(F)c1)c1cc2ccccc2s1` [Compound 133, N-(Benzo[b]thiophen-2-yl)-N-(3,4-difluoro-benzyl)-C-methanesulfonyl-methanesulfonamide], the half-inhibitory concentration (IC50) under setting [1] is 60 nM. Moreover, under setting [3], the inhibition at 0.5 µM worked out at 97%.

`CNS(=O)(=O)N(Cc1ccc(F)c(C(F)(F)F)c1)c1sc2ccccc2c1C` [Compound 533, N-(4-Fluoro-3-trifluoromethyl-benzyl)-N-(3-methylbenzo[b]thiophen-2-yl)-N′-methyl-sulfamide]: the IC50 under setting [1] amounted to 32 nM. Besides, the inhibition at 0.2 µM under setting [2] is 102%.

The term IC50 denotes the concentration that gives 50% inhibition.
